Assay results from US10010077B2, “Ginkgo derived compositions and their use to prevent fruit infestation by codling moth” (Missouri State University, priority 2012, dated 2018).
Marks after values point to notes of the source that are not given here.

Legend:
[1] = concentration of 0.2%; cited from earlier work
mammals = details: cited from earlier work
codling moth neonates = test: apple plug choice feeding bioassay with codling moth neonates; format: in vivo, Cydia pomonella; design: key to Deterrence index: (1 − treated feeders / control feeders) × 100; details: for concentration at which feeding deterrent effects were found / feeding deterrent properties against codling moth neonates: Fisher exact test; for feeding deterrent properties against codling moth neonates: all concentrations tested
Procedure: Codling moth pupae were obtained from USDA-ARS Yakima Agricultural Research Laboratory in Wapato, Wash., USA. These pupae were stored at 25° C., 70-80% relative humidity and 16:8 (L:D). Moths were allowed to oviposit on polypropylene Ziploc bags (S. C. Johnson, Racine, Wis., USA). Neonates were collected 0.5-1.0 h post-hatch and subjected to bioassays immediately.
Bioassays were performed as described in details by Durden et al. (2008). Briefly, apple plugs were formed by forcing a plastic soda straw through a 20 mm thick section of apple containing both epidermis and flesh of the apple. The straw with a plug in it was cut to a length of approximately 15 mm, the plug positioned with the epidermis of the apple protruding 2 mm from the straw and entire assembly was dipped in liquid paraffin wax. Excess wax was removed from the epidermis of the plug using a warm spatula.
Five microliters of either control (dehydration alcohol only) or experimental solution was applied to the epidermis of each apple plug and allowed to dry. Using a small amount of modeling clay, four plugs (two controls, two experimental) were arranged with one control and one experimental plug facing each other at either side of a 60×15 mm polyurethane petri dish. A short piece of glass rod (1.3 mm diameter) was placed between the two pairs of plugs to form a bridge allowing tested codling moth neonate to choose between either control or experimental plug regardless of which direction the larva traveled along the glass rod.
Assays were evaluated after 20 hours to determine which plug was fed upon. Feeding deterrence index was calculated according to Jones (1952) by dividing the number of the neonates feeding on apple plugs treated with […] by the number of the neonates feeding on the plugs treated with dehydration alcohol only, subtracting this figure from 1, and multiplying the result by 100. Further details about this method may be found in Durden et al. (2008) and Durden et al., (2011).
[…] The number of tests per concentration (each test performed with a different neonate) varied between 13 and 93. The null hypothesis that 50% of neonates would choose control plugs and 50% would choose experimental plugs was tested using Fisher's Exact Test (α=0.05).

[2] = choice test versus fruit treated at 0.01 mg/ml
[3] = choice test versus fruit treated at 0.1 mg/ml
[4] = choice test versus fruit treated at 1 mg/ml
[5] = choice test versus fruit treated at 10 mg/ml
[6] = choice test versus fruit treated at 0.5 mg/ml
[7] = choice test versus fruit treated at 5 mg/ml
[8] = circa 3 mg/ml, saturated solution
[9] = choice test versus fruit treated at 30 mg/ml

Compound | Deterrence index (codling moth neonates; 0.1 mg/ml) | Number of neonates feeding Treated fruit (codling moth neonates; 0.1 mg/ml) | Deterrence index (codling moth neonates; 1 mg/ml) | Number of neonates feeding Treated fruit (codling moth neonates; 1 mg/ml) | Deterrence index (codling moth neonates; 10 mg/ml) | Number of neonates feeding Treated fruit (codling moth neonates; 10 mg/ml) | Number of neonates feeding Control fruit (codling moth neonates; [3]) | Number of neonates feeding Control fruit (codling moth neonates; [4]) | Number of neonates feeding Control fruit (codling moth neonates; [5]) | Deterrence index (codling moth neonates; 0.5 mg/ml) | Number of neonates feeding Treated fruit (codling moth neonates; 0.5 mg/ml) | Deterrence index (codling moth neonates; 5 mg/ml) | Number of neonates feeding Treated fruit (codling moth neonates; 5 mg/ml) | feeding deterrent properties against codling moth neonates (codling moth neonates) | Number of neonates feeding Control fruit (codling moth neonates; [6]) | Number of neonates feeding Control fruit (codling moth neonates; [7]) | also measured
CC(C)(C)[C@]1(O)CC2OC(=O)CC23C(=O)OC2OC(=O)[C@H](O)C231 (some centres unmarked) [Bilobalide] | 56.5 | 20* | 50 | 31* | 75 | 8** | 46 | 62 | 32 | – | – | – | – | – | – | – | phytotoxicity [1]: not phytotoxic; LD50 (mammals): > 1,000 mg/kg; Deterrence index (codling moth neonates; 0.001 mg/ml): 0; Number of neonates feeding Treated fruit (codling moth neonates; 0.001 mg/ml): 15; Deterrence index (codling moth neonates; 0.01 mg/ml): 23.5; Number of neonates feeding Treated fruit (codling moth neonates; 0.01 mg/ml): 13; concentration at which feeding deterrent effects were found (codling moth neonates): ≥ 0.1 mg/mL; Number of neonates feeding Control fruit (codling moth neonates; choice test versus fruit treated at 0.001 mg/ml): 15; Number of neonates feeding Control fruit (codling moth neonates; [2]): 17
CCCCCCCCCCCCCc1cccc(O)c1C(=O)O [Ginkgolic acid 13:0] | – | – | 26.1 | 17 | 42.1 | 11 | – | 23 | 19 | 23.5 | 13 | 0 | 14 | did not exhibit significant feeding deterrent properties | 17 | 14 | –
CCCCCCCCCCCCCCCc1cccc(O)c1C(=O)O [Ginkgolic acid 15:0] | – | – | 91.7 | 1* | – | – | – | 12 | – | 26.7 | 11 | 81.8 | 4** | – | 15 | 22 | Deterrence index (codling moth neonates; 0.2 mg/ml): 25.0; Number of neonates feeding Treated fruit (codling moth neonates; 0.2 mg/ml): 12; Deterrence index (codling moth neonates; 2 mg/ml): 73.7; Number of neonates feeding Treated fruit (codling moth neonates; 2 mg/ml): 5*; concentration at which feeding deterrent effects were found (codling moth neonates): ≥ 1 mg/mL; Number of neonates feeding Control fruit (codling moth neonates; choice test versus fruit treated at 0.2 mg/ml): 16; Number of neonates feeding Control fruit (codling moth neonates; choice test versus fruit treated at 2 mg/ml): 19
CCCCCC/C=C\CCCCCCCc1cccc(O)c1C(=O)O [Ginkgolic acid 15:1] | – | – | 41.7 | 14 | 63.2 | 7 | – | 24 | 19 | 18.8 | 13 | 50.0 | 15 | did not exhibit significant feeding deterrent properties | 16 | 30 | –
CCCCCC/C=C\CCCCCCCCCc1cccc(O)c1C(=O)O [Ginkgolic acid 17:1] | – | – | 5.3 | 18 | 60.0 | 8 | – | 19 | 20 | 37.5 | 10 | 54.5 | 10 | did not exhibit significant feeding deterrent properties | 16 | 22 | –
C[C@@H]1C(=O)O[C@H]2C[C@@]34[C@H]5C[C@@H](C(C)(C)C)[C@]36[C@@H](OC(=O)[C@@H]6O)O[C@@]4(C(=O)O5)[C@]21O [Ginkgolide A] | 7.69 | 12 | 40.4 | 28 | 38.5 | 16 | 13 | 47 | 26 | – | – | – | – | did not exhibit significant feeding deterrent properties | – | – | –
CC1C(=O)OC2C(O)C34C5CC(C(C)(C)C)C36C(OC(=O)C6O)OC4(C(=O)O5)C12O (centres unmarked) [Ginkgolide B] | 12.5 | 14 | 26.1 | 17 | 76.0 | 6*** | 16 | 23 | 25 | – | – | – | – | – | – | – | concentration at which feeding deterrent effects were found (codling moth neonates): 10 mg/mL
COc1cc(-c2oc3cc(O)cc(O)c3c(=O)c2O)ccc1O [Isorhamnetin] | 10.3 | 26 | No deterrence | 43 | – | – | 29 | 28 | – | – | – | – | – | slight tendency to discourage some percentage of the larvae from infesting the fruit | – | – | Deterrence index (codling moth neonates; 0.01 mg/ml): 21.7; Number of neonates feeding Treated fruit (codling moth neonates; 0.01 mg/ml): 18; Number of neonates feeding Control fruit (codling moth neonates; [2]): 23; Number of neonates feeding Control fruit (codling moth neonates; choice test versus fruit treated at circa 3 mg/ml, saturated solution): 28; Deterrence index (codling moth neonates; [8]): 32.1; Number of neonates feeding Treated fruit (codling moth neonates; [8]): 19
O=c1c(O)c(-c2ccc(O)cc2)oc2cc(O)cc(O)c12 [Kaempferol] | No deterrence | 12 | 25 | 24 | No deterrence | 10 | 8 | 32 | 10 | – | – | – | – | – | – | – | Deterrence index (codling moth neonates; 30 mg/ml): No deterrence**; Number of neonates feeding Treated fruit (codling moth neonates; 30 mg/ml): 35; Deterrence index (codling moth neonates; 60 mg/ml): No deterrence*; Number of neonates feeding Treated fruit (codling moth neonates; 60 mg/ml): 17; Number of neonates feeding Control fruit (codling moth neonates; [9]): 9; Number of neonates feeding Control fruit (codling moth neonates; choice test versus fruit treated at 60 mg/ml): 3
O=c1c(O)c(-c2ccc(O)c(O)c2)oc2cc(O)cc(O)c12 [Quercetin] | No deterrence | 14 | No deterrence | 24 | No deterrence | 20 | 10 | 24 | 16 | – | – | – | – | – | – | – | Deterrence index (codling moth neonates; 30 mg/ml): No deterrence**; Number of neonates feeding Treated fruit (codling moth neonates; 30 mg/ml): 21; Number of neonates feeding Control fruit (codling moth neonates; [9]): 4
Ginkgolide C | 11.8 | 15 | 20 | 24 | 10 | 18 | 17 | 30 | 20 | – | – | – | – | did not exhibit significant feeding deterrent properties | – | – | –
